Data on 32 compounds can be found in patent publication US9023847B2, “Azaheterocyclic compounds” (Merck Patent GmbH, priority 2009, dated 2015).

The term IC50 denotes the point on the concentration scale where inhibition reaches its midpoint.

The target of one assay is T1, P70S6K (T412E mutant, Millipore) (Homo sapiens, UniProt P23443, T412E).
T1 construct: purchased Millipore
T1 sequence (P23443 whole entry T412E): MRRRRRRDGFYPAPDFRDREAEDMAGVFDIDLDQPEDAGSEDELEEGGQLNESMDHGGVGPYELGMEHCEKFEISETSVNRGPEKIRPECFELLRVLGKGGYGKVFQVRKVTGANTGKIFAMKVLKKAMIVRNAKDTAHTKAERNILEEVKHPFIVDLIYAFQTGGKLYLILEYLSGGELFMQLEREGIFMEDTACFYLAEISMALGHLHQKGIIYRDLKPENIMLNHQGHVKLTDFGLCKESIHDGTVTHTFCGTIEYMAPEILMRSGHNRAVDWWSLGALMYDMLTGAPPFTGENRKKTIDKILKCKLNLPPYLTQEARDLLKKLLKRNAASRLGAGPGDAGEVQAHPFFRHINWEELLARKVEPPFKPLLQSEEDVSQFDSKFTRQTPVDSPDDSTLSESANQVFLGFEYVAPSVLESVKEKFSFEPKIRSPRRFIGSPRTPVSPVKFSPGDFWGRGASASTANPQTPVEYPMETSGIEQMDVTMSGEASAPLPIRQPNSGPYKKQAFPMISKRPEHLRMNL
Kind of assay: p70S6K enzyme assay. The assay is classed as biochemical. Particulars: class symbol; 3 nM P70S6K, 24 μM ATP; read-out: IC50 (p70S6K). The method, then:
P70S6K inhibitor compounds are diluted and plated in 96 well plates. A reaction mixture including the following components is then added to the compound plate to initiate the enzyme reaction; P70S6K (3 nM, T412E mutant, Millipore) is mixed with 24 μM ATP in an assay buffer containing 100 mM Hepes (pH 7.5), 5 mM MgCl2, 1 mM DTT, 0.015% Brij and 1 μM of the substrate peptide FITC-AHA-AKRRRLSSLRA-OH (derived from the S6 ribosomal protein sequence, FITC=fluorescein isothiocyanate, AHA=6-aminohexanoic acid). The reaction is incubated for 90 min at 25° C., before the addition of 10 mM EDTA to stop the reaction. The proportion of substrate and product (phosphorylated) peptide is analysed on a Caliper Life Sciences Lab Chip 3000, using a pressure of −1.4 psi, and upstream and downstream voltages of −3000 and −700 respectively. Product peaks are resolved before substrate peaks on the resulting chromatograms.
Take `O=C(NCCS(=O)(=O)Cc1ccccc1)c1sccc1Nc1ccnc2[nH]ccc12` [Example 69, 3-(1H-Pyrrolo[2,3-b]pyridin-4-ylamino)-thiophene-2-carboxylic acid (2-phenylmethanesulfonyl-ethyl)-amide]: the IC50 was in the range of 100 to 1000 nM. For the compound `O=C(NCCNC(=O)c1sccc1Nc1ccnc2[nH]ccc12)c1ccccc1` [Example 70, 3-(1H-Pyrrolo[2,3-b]pyridin-4-ylamino)-thiophene-2-carboxylic acid (2-benzoylamino-ethyl)-amide], the IC50 is less than 100 nM. Same read-out and setting: as for `O=C(NCCNS(=O)(=O)c1ccccc1)c1sccc1Nc1ccnc2[nH]ccc12` [Example 71, 3-(1H-Pyrrolo[2,3-b]pyridin-4-ylamino)-thiophene-2-carboxylic acid (2-benzenesulfonylamino-ethyl)-amide], the figure is 100 to 1000 nM; as for `O=C(NCCNCc1ccccc1)c1ccsc1Nc1ccnc2[nH]ccc12` [Example 72, 2-(1H-Pyrrolo[2,3-b]pyridin-4-ylamino)-thiophene-3-carboxylic acid (2-benzylamino-ethyl)-amide], less than 100 nM.

As to `O=C(CNC(=O)c1sccc1Nc1ccnc2[nH]ccc12)NCc1ccccc1` [Example 73, 3-(1H-Pyrrolo[2,3-b]pyridin-4-ylamino)-thiophene-2-carboxylic acid (benzylcarbamoyl-methyl)-amide], the IC50 fell in the range of 100 to 1000 nM. The same measure, in the same setting: as for `O=C(NCCNCc1ccncc1)c1sccc1Nc1ccnc2[nH]ccc12` [Example 74, 3-(1H-Pyrrolo[2,3-b]pyridin-4-ylamino)-thiophene-2-carboxylic acid {2-[(pyridin-4-ylmethyl)-amino]-ethyl}-amide], the figure is 100 to 1000 nM. Consider `O=C(N[C@H](CO)c1ccccc1)c1ccsc1Nc1ccnc2[nH]ccc12` [Example 75, 2-(1H-Pyrrolo[2,3-b]pyridin-4-ylamino)-thiophene-3-carboxylic acid ((S)-2-hydroxy-1-phenyl-ethyl)-amide], for which the IC50 is less than 100 nM. Consider `[N-]=[N+]=NCC(NC(=O)c1sccc1Nc1ccnc2[nH]ccc12)c1ccccc1` (centres unmarked) [Example 76, 3-(1H-Pyrrolo[2,3-b]pyridin-4-ylamino)-thiophene-2-carboxylic acid (2-azido-1-phenyl-ethyl)-amide], for which the IC50 was less than 100 nM. On the same count and under the same terms, under `NCC(NC(=O)c1sccc1Nc1ccnc2[nH]ccc12)c1ccccc1` (centres unmarked) [Example 77, 3-(1H-Pyrrolo[2,3-b]pyridin-4-ylamino)-thiophene-2-carboxylic acid (2-amino-1-phenyl-ethyl)-amide] stands less than 100 nM; under `NC(CNC(=O)c1sccc1Nc1ccnc2[nH]ccc12)c1ccccc1` (centres unmarked) [Example 78, 3-(1H-Pyrrolo[2,3-b]pyridin-4-ylamino)-thiophene-2-carboxylic acid (2-amino-2-phenyl-ethyl)-amide], less than 100 nM; under `Cc1cc(Nc2ccnc3[nH]ccc23)c(C(=O)NCCNCc2ccccc2)s1` [Example 79, 5-Methyl-3-(1H-pyrrolo[2,3-b]pyridin-4-ylamino)-thiophene-2-carboxylic acid (2-benzylamino-ethyl)-amide], 1000 to 10000 nM. Still for that read-out and setting: under `Cc1cc(Nc2ccnc3[nH]ccc23)c(C(=O)N[C@H](CO)c2ccccc2)s1` [Example 80, 5-Methyl-3-(1H-pyrrolo[2,3-b]pyridin-4-ylamino)-thiophene-2-carboxylicacid ((S)-2-hydroxy-1-phenyl-ethyl)-amide] stands 100 to 1000 nM; under `O=C(N[C@@H](CO)Cc1ccccc1)c1sccc1Nc1ccnc2[nH]ccc12` [Example 81, 3-(1H-Pyrrolo[2,3-b]pyridin-4-ylamino)-thiophene-2-carboxylic acid ((R)-1-benzyl-2-hydroxy-ethyl)-amide], 1000 to 10000 nM. As to `O=C(N[C@@H](CO)[C@@H](O)c1ccccc1)c1sccc1Nc1ccnc2[nH]ccc12` [Example 84, 3-(1H-Pyrrolo[2,3-b]pyridin-4-ylamino)-thiophene-2-carboxylic acid ((1S,2S)-2-hydroxy-1-hydroxymethyl-2-phenyl-ethyl)-amide], the half-inhibitory concentration (IC50) fell in the range of 1000 to 10000 nM.

As to `COC(=O)C(CO)NC(=O)c1sccc1Nc1ccnc2[nH]ccc12` (centres unmarked) [Example 85, 3-Hydroxy-2-{[3-(1H-pyrrolo[2,3-b]pyridin-4-ylamino)-thiophene-2-carbonyl]-amino}-propionic acid methyl ester], the IC50 lay within 100 to 1000 nM. On the same count and under the same terms, under `O=C(N[C@H](CO)Cc1ccccc1)c1sccc1Nc1ccnc2[nH]ccc12` [Example 86, 3-(1H-Pyrrolo[2,3-b]pyridin-4-ylamino)-thiophene-2-carboxylic acid ((S)-1-benzyl-2-hydroxy-ethyl)-amide] stands less than 100 nM; under `Nc1cccc(CNC(=O)c2sccc2Nc2ccnc3[nH]ccc23)c1` [Example 87, 3-(1H-Pyrrolo[2,3-b]pyridin-4-ylamino)-thiophene-2-carboxylic acid 3-amino-benzylamide], less than 100 nM. Same read-out and setting: under `O=C(NC(CO)C(=O)NCc1ccccc1)c1sccc1Nc1ccnc2[nH]ccc12` (centres unmarked) [Example 88, 3-(1H-Pyrrolo[2,3-b]pyridin-4-ylamino)-thiophene-2-carboxylic acid (1-benzylcarbamoyl-2-hydroxy-ethyl)-amide] stands 100 to 1000 nM. Still for that read-out and setting: as for `O=C(NC(CO)C(=O)NCc1ccc(Cl)c(C(F)(F)F)c1)c1sccc1Nc1ccnc2[nH]ccc12` (centres unmarked) [Example 89, 3-(1H-Pyrrolo[2,3-b]pyridin-4-ylamino)-thiophene-2-carboxylic acid [1-(4-chloro-3-trifluoromethyl-benzylcarbamoyl)-2-hydroxy-ethyl]-amide], the figure is 100 to 1000 nM; as for `O=C(NCCNCc1ccc(Cl)c(C(F)(F)F)c1)c1sccc1Nc1ccnc2[nH]ccc12` [Example 90, 3-(1H-Pyrrolo[2,3-b]pyridin-4-ylamino)-thiophene-2-carboxylic acid [2-(4-chloro-3-trifluoromethyl-benzylamino)-ethyl]-amide], less than 100 nM.

In the case of `CC(C)(C)OC(=O)N1CCCC(NC(=O)c2sccc2Nc2ccnc3[nH]ccc23)C1` (centres unmarked) [Example 91, 3-{[3-(1H-Pyrrolo[2,3-b]pyridin-4-ylamino)-thiophene-2-carbonyl]-amino}-piperidine-1-carboxylic acid tert-butyl ester], the IC50 lay within 100 to 1000 nM.

`CC(C)(C)OC(=O)N1CCC[C@@H]1CNC(=O)c1sccc1Nc1ccnc2[nH]ccc12` [Example 92, (R)-2-({[3-(1H-Pyrrolo[2,3-b]pyridin-4-ylamino)-thiophene-2-carbonyl]-amino}methyl)pyrrolidine-1-carboxylic acid tert-butyl ester]: the IC50 fell in the range of 100 to 1000 nM. Still for that read-out and setting: under `O=C(NC[C@H]1CCCN1)c1sccc1Nc1ccnc2[nH]ccc12` [Example 93, 3-(1H-Pyrrolo[2,3-b]pyridin-4-ylamino)-thiophene-2-carboxylic acid ((R)-1-pyrrolidin-2-ylmethyl)-amide] stands 100 to 1000 nM; under `COc1cccc(CNC(=O)c2sccc2Nc2ccnc3[nH]ccc23)c1` [Example 94, 3-(1H-Pyrrolo[2,3-b]pyridin-4-ylamino)-thiophene-2-carboxylic acid 3-methoxybenzylamide], less than 100 nM. In the case of `COc1cc(CNC(=O)c2sccc2Nc2ccnc3[nH]ccc23)cc(OC)c1` [Example 95, 3-(1H-Pyrrolo[2,3-b]pyridin-4-ylamino)-thiophene-2-carboxylic acid 3,5-dimethoxy-benzylamide], the IC50 fell in the range of 100 to 1000 nM. With `CC(C)[C@@H](CO)NC(=O)c1sccc1Nc1ccnc2[nH]ccc12` [Example 96, 3-(1H-Pyrrolo[2,3-b]pyridin-4-ylamino)-thiophene-2-carboxylic acid ((S)-1-hydroxymethyl-2-methyl-propyl)-amide], the IC50 was in the range of 100 to 1000 nM. On to `CC(C)C[C@@H](CO)NC(=O)c1sccc1Nc1ccnc2[nH]ccc12` [Example 97, 3-(1H-Pyrrolo[2,3-b]pyridin-4-ylamino)-thiophene-2-carboxylic acid ((S)-1-hydroxymethyl-3-methyl-butyl)-amide], for which the IC50 is 100 to 1000 nM. Regarding `O=C(NCc1ccc(Cl)c(C(F)(F)F)c1)c1sccc1Nc1ccnc2[nH]ccc12` [Example 98, 3-(1H-Pyrrolo[2,3-b]pyridin-4-ylamino)-thiophene-2-carboxylic acid 4-chloro-3-trifluoromethyl-benzylamide], the IC50 is less than 100 nM. Regarding `O=C(NCC(O)c1ccccc1)c1sccc1Nc1ccnc2[nH]ccc12` (centres unmarked) [Example 99, 3-(1H-Pyrrolo[2,3-b]pyridin-4-ylamino)-thiophene-2-carboxylic acid (2-hydroxy-2-phenyl-ethyl)-amide], the IC50 is less than 100 nM. Regarding `O=C(Nc1cccc(CNC(=O)c2sccc2Nc2ccnc3[nH]ccc23)c1)c1ccc(F)cc1` [Example 100, 3-(1H-Pyrrolo[2,3-b]pyridin-4-ylamino)-thiophene-2-carboxylic acid 3-(4-fluoro-benzoylamino)-benzylamide], the IC50 is less than 100 nM.

Staying with this assay, now noted: numeric bound printed under the example; read-out: IC50 (p70S6K).
`O=C(NCCNCc1ccccc1)c1sc2ccccc2c1Nc1ccnc2[nH]ccc12` [Example 82, 3-(1H-Pyrrolo[2,3-b]pyridin-4-ylamino)-benzo[b]thiophene-2-carboxylic acid (2-benzylamino-ethyl)-amide]: the IC50 is greater than 10000 nM. In the case of `O=C(N[C@H](CO)c1ccccc1)c1sc2ccccc2c1Nc1ccnc2[nH]ccc12` [Example 83, 3-(1H-Pyrrolo[2,3-b]pyridin-4-ylamino)-benzo[b]thiophene-2-carboxylic acid ((S)-2-hydroxy-1-phenyl-ethyl)-amide], the IC50 is greater than 10000 nM.
